Results on 23 compounds are retold here after US8084479B2, “Thiazole compounds and methods of use” (Amgen Inc., priority 2006, dated 2011).

The target of the test is PKBα (Homo sapiens, UniProt P31749). In words: PKB kinase assay (P33-labeled ATP, peptide substrate, filter plate). Type of test: biochemical. To be noted: PKBα enzyme (full length or kinase domain with pleckstrin domain deleted). The text has this:
The kinase assay for evaluating PKB activity comprises active PKB enzymes, a PKB specific substrate, and P^33-labeled ATP. […] The phosphorylated substrate was captured by a phosphocellulose membrane filter plate (MLLIPORE) and measured by a Wallac Microbeta liquid scintillation counter (Perkin Elmer).

Broadly, the pIC50 is −log10 of the IC50, conventionally taken in molar units. Read a low pIC50 as a high IC50.

SMILES strings stand for the structures. pIC50: −log10 of the molar value. A value given as a limit tells only on which side of the number the result lay.

Chain of PKBα (P31749 118-480 limits assumed): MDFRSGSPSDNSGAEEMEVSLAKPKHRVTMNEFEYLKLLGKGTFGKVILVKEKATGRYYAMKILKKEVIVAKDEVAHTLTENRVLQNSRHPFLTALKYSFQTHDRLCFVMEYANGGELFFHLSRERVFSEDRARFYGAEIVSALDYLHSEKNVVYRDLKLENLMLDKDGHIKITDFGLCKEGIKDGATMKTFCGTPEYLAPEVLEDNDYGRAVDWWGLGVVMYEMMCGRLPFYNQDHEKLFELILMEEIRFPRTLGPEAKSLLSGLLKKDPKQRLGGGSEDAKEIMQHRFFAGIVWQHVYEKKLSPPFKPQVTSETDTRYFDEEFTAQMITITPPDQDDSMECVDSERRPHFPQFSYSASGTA

`C[C@@H](Nc1ncc(-c2ccc3cnccc3c2)s1)[C@@H](N)Cc1ccc(C(F)(F)F)cc1` [Example 230, N-((2R,3S)-3-amino-4-(4-(trifluoromethyl)phenyl)butan-2-yl)-5-(isoquinolin-6-yl)thiazol-2-amine]: the pIC50 was > 7.30.

Take `C[C@@H](Nc1ncc(-c2ccc3[nH]c(=O)oc3c2)s1)[C@@H](N)Cc1ccc(C(F)(F)F)cc1` [Example 231, 6-(2-((2R,3S)-3-amino-4-(4-(trifluoromethyl)phenyl)butan-2-ylamino)thiazol-5-yl)benzo[d]oxazol-2(3H)-one]: the pIC50 was 6.00 to 7.30.

In the case of `C[C@@H](Nc1ncc(-c2ccc3[nH]c(=O)n(C)c3c2)s1)[C@@H](N)Cc1ccc(C(F)(F)F)cc1` [Example 232, 6-(2-((2R,3S)-3-amino-4-(4-(trifluoromethyl)phenyl)butan-2-ylamino)thiazol-5-yl)-1-methyl-1H-benzo[d]imidazol-2(3H)-one], the pIC50 was 6.00 to 7.30.

For the compound `C[C@@H](c1ccc(C(F)(F)F)nc1)[C@H](N)CNc1ncc(-c2ccc3c(c2)CC(=O)N3)s1` [Example 233, 5-(2-((2S,3S)-2-amino-3-(6-(trifluoromethyl)pyridin-3-yl)butylamino)thiazol-5-yl)indolin-2-one], the pIC50 was > 7.30.

In turn, `C[C@H](Nc1ncc(-c2ccc3c(c2)CC(=O)N3)s1)[C@@H](N)Cc1ccc(C(F)(F)F)cc1` [Example 234, 5-(2-((2S,3S)-3-amino-4-(4-(trifluoromethyl)phenyl)butan-2-ylamino)thiazol-5-yl)indolin-2-one] had a negative logarithm of the IC50 (pIC50) of 5.00 to 6.00.

In turn, `C[C@H](Nc1ncc(-c2ccc3cnccc3c2)s1)[C@@H](N)Cc1ccc(C(F)(F)F)cc1` [Example 235, N-((2S,3S)-3-amino-4-(4-(trifluoromethyl)phenyl)butan-2-yl)-5-(isoquinolin-6-yl)thiazol-2-amine] showed a negative logarithm of the IC50 (pIC50) of 6.00 to 7.30.

In turn, `C[C@H](Nc1ncc(-c2ccc3[nH]c(=O)oc3c2)s1)[C@@H](N)Cc1ccc(C(F)(F)F)cc1` [Example 236, 6-(2-((2S,3S)-3-amino-4-(4-(trifluoromethyl)phenyl)butan-2-ylamino)thiazol-5-yl)benzo[d]oxazol-2(3H)-one] gave a pIC50 of 5.00 to 6.00.

`C[C@H](Nc1ncc(-c2ccc3[nH]c(=O)n(C)c3c2)s1)[C@@H](N)Cc1ccc(C(F)(F)F)cc1` [Example 237, 6-(2-((2S,3S)-3-amino-4-(4-(trifluoromethyl)phenyl)butan-2-ylamino)thiazol-5-yl)-1-methyl-1H-benzo[d]imidazol-2(3H)-one] gave a negative-log IC50 (pIC50) of 5.00 to 6.00.

In turn, `COc1cc(C[C@H](N)CNc2ncc(-c3ccc4c(c3)CNC4=O)s2)cnc1C(F)(F)F` [Example 238, 5-(2-((S)-2-amino-3-(5-methoxy-6-(trifluoromethyl)pyridin-3-yl)propylamino)thiazol-5-yl)isoindolin-1-one] had a negative logarithm of the IC50 (pIC50) of 6.00 to 7.30.

Take `N[C@H](CNc1ncc(-c2ccc3c(c2)CNC3=O)s1)Cc1ccc(Cl)s1` [Example 239, 3,5-(2-((S)-2-amino-3-(5-chlorothiophen-2-yl)propylamino)thiazol-5-yl)isoindolin-1-one]: the pIC50 was 5.00 to 6.00.

For `N[C@H](CNc1ncc(-c2ccc3c(c2)CNC3=O)s1)Cc1ccc(C(F)(F)F)cc1` [Example 240, 5-(2-((S)-2-amino-3-(4-(trifluoromethyl)phenyl)propylamino)thiazol-5-yl)isoindolin-1-one], the pIC50 was 6.00 to 7.30.

Turning to `COC[C@@H](c1ccc(C(F)(F)F)cc1)[C@H](N)CNc1ncc(-c2ccc3c(c2)CC(=O)N3)s1` [Example 241, 5-(2-((2S,3S)-2-amino-4-methoxy-3-(4-(trifluoromethyl)phenyl)butylamino)thiazol-5-yl)indolin-2-one], the negative logarithm of the IC50 (pIC50) is > 7.30.

`CC(C)(C)C(=O)OC[C@@H](c1ccc(C(F)(F)F)cc1)[C@H](N)CNc1ncc(-c2ccc3c(c2)CC(=O)N3)s1` [Example 242, (2S,3S)-3-amino-4-(5-(2-oxoindolin-5-yl)thiazol-2-ylamino)-2-(4-(trifluoromethyl)phenyl)butyl pivalate] had a pIC50 of 6.00 to 7.30.

Take `CC(O)[C@@H](c1ccc(C(F)(F)F)cc1)[C@H](N)CNc1ncc(-c2ccc3c(c2)CC(=O)N3)s1` (stereo partly drawn) [Example 243, 5-(2-((2S,3S)-2-amino-4-hydroxy-3-(4-(trifluoromethyl)phenyl)pentylamino)thiazol-5-yl)indolin-2-one]: the pIC50 is > 7.30.

For `COCOC(c1ccc(C(F)(F)F)cc1)C(N)CNc1ncc(-c2ccc3c(c2)CC(=O)N3)s1` (centres unmarked) [Example 244], the pIC50 is 5.00 to 6.00.

Compound `CC(=O)OC[C@@H](c1ccc(C(F)(F)F)cc1)[C@H](N)CNc1ncc(-c2ccc3c(c2)CC(=O)N3)s1` [Example 248, (2S,3S)-3-amino-4-(5-(2-oxoindolin-5-yl)thiazol-2-ylamino)-2-(4-(trifluoromethyl)phenyl)butyl acetate] gave a pIC50 of 6.00 to 7.30.

`Cn1c(=O)[nH]c2ccc(-c3sc(NC[C@@H](N)Cc4ccc(C(F)(F)F)cc4)nc3-c3ccccc3F)cc21` [Example 249, 6-(2-((S)-2-amino-3-(4-(trifluoromethyl)phenyl)propylamino)-4-(2-fluorophenyl)thiazol-5-yl)-1-methyl-1H-benzo[d]imidazol-2(3H)-one]: the pIC50 is 5.00 to 6.00.

Compound `Cn1c(=O)[nH]c2ccc(-c3sc(NC[C@@H](N)Cc4ccc(F)cc4)nc3-c3ccccc3F)cc21` [Example 250, 6-(2-((S)-2-amino-3-(4-fluorophenyl)propylamino)-4-(2-fluorophenyl)thiazol-5-yl)-1-methyl-1H-benzo[d]imidazol-2(3H)-one] showed a negative logarithm of the IC50 (pIC50) of 5.00 to 6.00.

As to `N[C@H](CNc1ncc(-c2ccc3c(c2)OCO3)s1)Cc1c[nH]c2ccccc12` [Example 251, N—((S)-2-amino-3-(1H-indol-3-yl)propyl)-5-(benzo[d][1,3]dioxol-5-yl)thiazol-2-amine], the pIC50 is 5.00 to 6.00.

As to `N[C@H](CNc1ncc(-c2ccc3cn[nH]c(=O)c3c2)s1)Cc1ccc(C(F)(F)F)cc1` [Example 252, 7-(2-((S)-2-amino-3-(4-(trifluoromethyl)phenyl)propylamino)thiazol-5-yl)phthalazin-1 (211)-one], the pIC50 was 5.00 to 6.00.

On to `N[C@H](CNc1ncc(-c2ccc3cncnc3c2)s1)Cc1ccc(C(F)(F)F)cc1` [Example 253, N—((S)-2-Amino-3-(4-(trifluoromethyl)phenyl)propyl)-5-(quinazolin-7-yl)thiazol-2-amine], for which the negative logarithm of the IC50 (pIC50) is > 7.30.

The compound `N[C@H](CNc1ncc(-c2ccc3nnccc3c2)s1)Cc1ccc(C(F)(F)F)cc1` [Example 254, N—((S)-2-amino-3-(4-(trifluoromethyl)phenyl)propyl)-5-(cinnolin-6-yl)thiazol-2-amine] had a negative-log IC50 (pIC50) of 6.00 to 7.30.

For `N[C@H](CNc1nc(CCO)c(-c2ccc3cnccc3c2)s1)Cc1ccc(C(F)(F)F)cc1` [Example 255, 2-(2-((S)-2-amino-3-(4-(trifluoromethyl)phenyl)propylamino)-5-(isoquinolin-6-yl)thiazol-4-yl)ethanol], the negative-log IC50 (pIC50) is 6.00 to 7.30.
